ChEMBL document CHEMBL4028877, “Targets for Drug Therapy for Autism Spectrum Disorder: Challenges and Future Directions” (J Med Chem, 2017)

Assays:
Oxytocin receptor [1] = target: T1, Oxytocin receptor (Mus musculus, UniProt P97926); experiment: Displacement of [Tyrosyl-2,6-3H]Oxytocin from recombinant mouse OTR expressed in CHO-K1 cells after 180 mins by liquid scintillation counting method; format: cell-based
T1 sequence (P97926 whole entry): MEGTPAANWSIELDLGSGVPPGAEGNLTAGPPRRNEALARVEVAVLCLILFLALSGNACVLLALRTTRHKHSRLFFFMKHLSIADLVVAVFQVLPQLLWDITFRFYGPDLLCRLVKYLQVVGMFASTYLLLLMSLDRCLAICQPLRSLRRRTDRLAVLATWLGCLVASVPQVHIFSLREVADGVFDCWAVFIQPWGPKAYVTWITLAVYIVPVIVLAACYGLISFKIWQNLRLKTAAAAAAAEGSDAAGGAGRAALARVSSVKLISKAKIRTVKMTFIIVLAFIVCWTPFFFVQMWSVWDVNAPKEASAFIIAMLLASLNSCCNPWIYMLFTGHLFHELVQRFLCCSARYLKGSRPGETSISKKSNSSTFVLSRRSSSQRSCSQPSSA

Oxytocin receptor [2] = target: T1, Oxytocin receptor; experiment: Agonist activity at recombinant mouse OTR expressed in CHO-K1 cells assessed as induction of Ca2+ mobilization after overnight incubation by FLIPR assay; format: functional, cell-based
[3] = target: Glutamate receptor ionotropic, NMDA 2A (Rattus norvegicus) (UniProt Q00959); experiment: Antagonist activity at GluN2A in CA1 region of Sprague-Dawley rat hippocampal slices assessed as inhibition of schaffer collateral input-stimulated field excitatory postsynaptic potential at 30 to 50 uM after 40 mins by electrophysiology assay
[4] = target: Glutamate receptor ionotropic, NMDA 2A (Rattus norvegicus) (UniProt Q00959); experiment: Antagonist activity at GluN2A in rat primary pyramidal neurons assessed as inhibition of NMDA/glycine-induced current amplitude at 10 uM at holding potential of -70 mV by patch-clamp electrophysiology assay

Glutamate receptor ionotropic, NMDA 2A (Rattus norvegicus), sequence (Q00959 23-1464 limits assumed): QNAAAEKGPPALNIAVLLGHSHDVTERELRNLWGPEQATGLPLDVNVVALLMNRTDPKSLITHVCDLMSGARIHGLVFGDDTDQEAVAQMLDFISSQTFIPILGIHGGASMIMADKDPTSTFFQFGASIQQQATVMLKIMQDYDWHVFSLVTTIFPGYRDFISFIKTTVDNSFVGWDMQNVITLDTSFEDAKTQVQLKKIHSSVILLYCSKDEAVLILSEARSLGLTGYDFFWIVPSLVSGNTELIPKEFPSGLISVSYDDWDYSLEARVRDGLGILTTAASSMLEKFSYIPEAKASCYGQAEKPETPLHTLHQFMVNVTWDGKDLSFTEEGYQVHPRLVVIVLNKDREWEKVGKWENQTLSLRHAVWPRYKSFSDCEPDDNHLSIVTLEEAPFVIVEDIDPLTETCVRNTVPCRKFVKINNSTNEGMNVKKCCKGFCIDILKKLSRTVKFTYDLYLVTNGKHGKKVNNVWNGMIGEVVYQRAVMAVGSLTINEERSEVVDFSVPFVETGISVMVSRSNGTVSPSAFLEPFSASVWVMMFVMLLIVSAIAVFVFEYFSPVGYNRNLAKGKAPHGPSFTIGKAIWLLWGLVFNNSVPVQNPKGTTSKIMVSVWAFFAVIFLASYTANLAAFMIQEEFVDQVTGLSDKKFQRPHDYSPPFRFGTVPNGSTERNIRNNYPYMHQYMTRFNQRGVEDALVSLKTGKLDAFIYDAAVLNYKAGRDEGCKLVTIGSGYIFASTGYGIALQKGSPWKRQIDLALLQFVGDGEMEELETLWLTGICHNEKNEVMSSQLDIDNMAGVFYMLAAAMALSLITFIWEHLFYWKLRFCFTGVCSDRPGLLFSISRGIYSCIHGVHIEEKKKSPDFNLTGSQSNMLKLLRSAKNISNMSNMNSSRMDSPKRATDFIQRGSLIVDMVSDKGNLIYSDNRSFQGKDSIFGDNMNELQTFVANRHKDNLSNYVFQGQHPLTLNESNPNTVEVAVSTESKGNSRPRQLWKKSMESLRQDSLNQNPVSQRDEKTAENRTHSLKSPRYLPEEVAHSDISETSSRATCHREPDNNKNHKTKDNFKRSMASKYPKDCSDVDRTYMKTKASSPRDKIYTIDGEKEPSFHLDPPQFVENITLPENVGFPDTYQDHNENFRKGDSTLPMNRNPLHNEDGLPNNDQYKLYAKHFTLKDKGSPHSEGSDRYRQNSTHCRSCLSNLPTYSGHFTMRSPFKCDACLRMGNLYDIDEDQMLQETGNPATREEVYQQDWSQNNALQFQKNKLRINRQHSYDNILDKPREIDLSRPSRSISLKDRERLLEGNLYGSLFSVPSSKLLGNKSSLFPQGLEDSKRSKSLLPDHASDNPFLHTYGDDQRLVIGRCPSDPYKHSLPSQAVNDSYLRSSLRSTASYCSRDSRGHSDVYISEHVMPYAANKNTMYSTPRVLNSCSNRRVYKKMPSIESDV

Row | Ki (Oxytocin receptor [1]) [nM] | EC50 (Oxytocin receptor [2]) [nM] | inhibition [3] [%] | inhibition [4] [%] | Structure (SMILES)
1 | 51.6 | 29 |  |  | Cc1cc(C(=O)N2Cc3cnn(C)c3Nc3ccccc32)ccc1CNC(=O)N1CCN(Cc2cc(O)cc(O)c2)CC1
2 |  |  | 60 | 30 | Cc1ncc(CNC(=O)c2cnc(CNS(=O)(=O)c3ccc(F)c(Cl)c3)cn2)s1
3 |  |  | 60 | 30 | Cc1ncc(CNC(=O)c2cnc(CNS(=O)(=O)c3ccc(F)c(F)c3)c(C)n2)s1
